Experimental data as given in US20220265694A1, “COMPOSITIONS AND METHODS FOR TREATING AN INFECTION” (CMPD LICENSING, LLC, priority 2016, published 2022).
Read-outs that look alike come from different tables or passages of the source.

Tests used:
[1] = system: Methicillin resistant staph aureus (MRSA); assay: Expected efficacy of antibiotic agents; conditions: expected efficacy against Methicillin resistant staph aureus (MRSA); Gram: pos
Peptostreptococcus = assay: Expected efficacy of antibiotic agents; conditions: expected efficacy against Peptostreptococcus; Gram: pos
Clostridium difficile = assay: Expected efficacy of antibiotic agents; conditions: expected efficacy against Clostridium difficile; Gram: anaer
Enterobacter sakazakii = assay: Expected efficacy of antibiotic agents; conditions: expected efficacy against Enterobacter sakazakii; Gram: neg
Morganella morganii = assay: Expected efficacy of antibiotic agents; conditions: expected efficacy against Morganella morganii; Gram: neg
Proteus mirabilis = assay: Expected efficacy of antibiotic agents; conditions: expected efficacy against Proteus mirabilis; Gram: neg
Shigella sonnei = assay: Expected efficacy of antibiotic agents; conditions: expected efficacy against Shigella sonnei; Gram: neg
Shigella boydii = assay: Expected efficacy of antibiotic agents; conditions: expected efficacy against Shigella boydii; Gram: neg
Enterobacter aerogenes = assay: Expected efficacy of antibiotic agents; conditions: expected efficacy against Enterobacter aerogenes; Gram: neg
Campylobacter jejuni = assay: Expected efficacy of antibiotic agents; conditions: expected efficacy against Campylobacter jejuni; Gram: neg
Bordetella pertussis = assay: Expected efficacy of antibiotic agents; conditions: expected efficacy against Bordetella pertussis; Gram: neg
Neisseria gonorrhoeae = assay: Expected efficacy of antibiotic agents; conditions: expected efficacy against Neisseria gonorrhoeae; Gram: neg
Pseudomonas fluorescens = assay: Expected efficacy of antibiotic agents; conditions: expected efficacy against Pseudomonas fluorescens; Gram: neg
Bartonella bacilliformis = assay: Expected efficacy of antibiotic agents; conditions: expected efficacy against Bartonella bacilliformis; Gram: neg

Compound	Efficacy [1]	Efficacy (Peptostreptococcus)	Efficacy (Rickettsiae; expected efficacy against Rickettsiae, Gram: neg)	Efficacy (Clostridium difficile)	Efficacy (Enterobacter sakazakii)	Efficacy (Morganella morganii)	Efficacy (Proteus mirabilis)	Efficacy (Shigella sonnei)	Efficacy (Chlamydia psittaci; expected efficacy against Chlamydia psittaci, Gram: n/a)	Efficacy (Shigella boydii)	Efficacy (Enterobacter aerogenes)	Efficacy (Campylobacter jejuni)	Efficacy (Bordetella pertussis)	Efficacy (Neisseria gonorrhoeae)	Efficacy (Rickettsiae)	Efficacy (Pseudomonas fluorescens)	Efficacy (Chlamydia psittaci)	Efficacy (Brucella species)	Efficacy (Bartonella bacilliformis)
CO/N=C(\C(=O)N[C@@H]1C(=O)N2C(C(=O)O)=C(CSc3nc(=O)c(=O)[nH]n3C)CS[C@H]12)c1csc(N)n1 [Ceftriaxone]	no	yes	no	no	yes	yes	yes	yes	no	yes	yes	no	no	yes					
CN[C@H](CC(C)C)C(=O)N[C@H]1C(=O)N[C@@H](CC(N)=O)C(=O)N[C@H]2C(=O)N[C@H]3C(=O)N[C@H](C(=O)N[C@H](C(=O)O)c4cc(O)cc(O)c4-c4cc3ccc4O)[C@H](O)c3ccc(c(Cl)c3)Oc3cc2cc(c3O[C@@H]2O[C@H](CO)[C@@H](O)[C@H](O)[C@H]2O[C@H]2C[C@](C)(N)[C@H](O)[C@H](C)O2)Oc2ccc(cc2Cl)[C@H]1O [Vancomycin]	yes	yes		yes	no	no	no	no		no	no	no	no	no	no	no	no	no	no
